The source of these data is patent US20250215030A1, “STAT MODULATORS AND USES THEREOF” (Recludix Pharma, Inc., priority 2022, published 2025).

For test [1], the target named is T1, Recombinant STAT6 protein (STAT6(W123-T658)) (Homo sapiens, UniProt P42226).
T1 construct: STAT6(W123-T658)
T1 sequence (P42226 123-658): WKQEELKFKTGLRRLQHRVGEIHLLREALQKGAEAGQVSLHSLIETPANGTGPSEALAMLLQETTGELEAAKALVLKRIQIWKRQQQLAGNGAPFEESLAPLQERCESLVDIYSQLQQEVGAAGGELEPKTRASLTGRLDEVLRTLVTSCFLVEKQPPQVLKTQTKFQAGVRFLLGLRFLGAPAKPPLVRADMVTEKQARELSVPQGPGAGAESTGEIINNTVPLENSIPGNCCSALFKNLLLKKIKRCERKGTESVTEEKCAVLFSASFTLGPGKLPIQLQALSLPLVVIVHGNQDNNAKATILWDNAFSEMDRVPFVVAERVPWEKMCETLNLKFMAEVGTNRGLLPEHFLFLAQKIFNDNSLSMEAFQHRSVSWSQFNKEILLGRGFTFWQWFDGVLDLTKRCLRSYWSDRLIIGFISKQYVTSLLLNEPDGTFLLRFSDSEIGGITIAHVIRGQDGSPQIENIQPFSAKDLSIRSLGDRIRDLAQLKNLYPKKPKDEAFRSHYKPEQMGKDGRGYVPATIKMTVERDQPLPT
Kind of test: STAT6 Fluorescence Polarization (FP) Assay. The class given is binding. The following applies: STAT6(W123-T658) 250 nM, probe 5-FAM-ApYKPFQDLI-NH2 2 nM, 45-minute incubation. A digest of the protocol: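 Competitive displacement of a fluorescent phosphotyrosine peptide (2 nM) from recombinant STAT6 W123-T658 (250 nM), 45 min at room temperature in 10 mM HEPES pH 7.4, 50 mM NaCl, 2 mM DTT. mP fitted against log compound for IC50, grouped A (≤300 nM) to D (>30 μM).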
A general note: Fluorescence polarisation rises when a labelled molecule tumbles more slowly, as on binding a larger partner.

Test [2] addresses T2, Recombinant STAT3 protein (STAT3(G127-I722)) (Homo sapiens, UniProt P40763).
T2 construct: STAT3(G127-I722)
In words: STAT3 Fluorescence Polarization (FP) Assay. The class given is binding. The following applies: STAT3(G127-I722) 25 nM, probe 5-FAM-GpYLPQTV-NH2 2 nM, 45-minute incubation. In a few lines:
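Serially diluted compounds (1% DMSO) were mixed with 2 nM fluorescent phosphotyrosine peptide and 25 nM STAT3 construct G127-I722, pH 7.4, incubated 45 min at room temperature. IC50 values from fitted polarization curves are reported as categories A (≤100 nM), B, C, D (>10 μM).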

T2 sequence (P40763 127-722, species assumed): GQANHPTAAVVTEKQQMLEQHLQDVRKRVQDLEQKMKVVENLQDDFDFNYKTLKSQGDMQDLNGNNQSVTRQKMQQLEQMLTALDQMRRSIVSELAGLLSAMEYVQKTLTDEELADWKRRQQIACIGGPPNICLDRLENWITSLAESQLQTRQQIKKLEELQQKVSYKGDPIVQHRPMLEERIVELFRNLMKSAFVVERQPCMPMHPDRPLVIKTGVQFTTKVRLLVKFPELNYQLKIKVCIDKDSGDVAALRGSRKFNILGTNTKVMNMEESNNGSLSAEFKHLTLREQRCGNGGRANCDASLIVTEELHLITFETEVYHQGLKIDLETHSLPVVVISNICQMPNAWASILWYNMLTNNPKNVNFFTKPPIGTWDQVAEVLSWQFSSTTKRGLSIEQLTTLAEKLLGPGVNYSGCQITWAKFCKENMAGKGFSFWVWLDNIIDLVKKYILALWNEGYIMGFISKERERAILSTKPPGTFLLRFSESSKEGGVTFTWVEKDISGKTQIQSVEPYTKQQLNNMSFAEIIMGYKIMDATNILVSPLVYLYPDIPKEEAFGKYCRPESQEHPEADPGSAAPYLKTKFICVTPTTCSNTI

As usually defined, the IC50 is the concentration that gives 50% inhibition. Regarding `O=C(N[C@H]1C[C@H]2C[C@H]2C[C@H]2CC[C@@H](C(=O)N[C@H]3CN(c4cccnc4)C[C@@H]3F)N2C1=O)c1cc2cc(C(F)P(=O)(O)O)ccc2s1` (stereo partly drawn) [Example 267, (fluoro(2-(((3S,6S,7aR,8aS,9aR)-3-(((3S,4S)-4-fluoro-1-(pyridin-3-yl)pyrrolidin-3-yl)carbamoyl)-5-oxodecahydro-1H-cyclopropa[d]pyrrolo[1,2-a]azocin-6-yl)carbamoyl)benzo[b]thiophen-5-yl)methyl)phosphonic acid], the IC50 is 300 to 3000 nM in test [1] and less than 100 nM in test [2].
Take `COC1(c2nccn2C)CN(C(=O)[C@@H]2CC[C@@H]3C[C@@]4(C)C[C@H]4C[C@H](NC(=O)c4cc5cc(C(F)(F)P(=O)(O)O)ccc5s4)C(=O)N32)C1` [Example 237, (difluoro(2-(((3S,6S,7aS,8aR,9aR)-3-(3-methoxy-3-(1-methyl-1H-imidazol-2-yl)azetidine-1-carbonyl)-8a-methyl-5-oxodecahydro-1H-cyclopropa[d]pyrrolo[1,2-a]azocin-6-yl)carbamoyl)benzo[b]thiophen-5-yl)methyl)phosphonic acid]: the IC50 in test [1] was 3000 to 30000 nM; in test [2] it was 100 to 1000 nM.
For `N#Cc1ccc(C2(F)CN(C(=O)[C@@H]3CC[C@@H]4C[C@H]5C[C@H]5C[C@H](NC(=O)c5cc6cc(C(F)(F)P(=O)(O)O)ccc6s5)C(=O)N43)C2)cc1` [Compound 62, ((2-(((3S,6S,7aS,8aR,9aR)-3-(3-(4-cyanophenyl)-3-fluoroazetidine-1-carbonyl)-5-oxodecahydro-1H-cyclopropa[d]pyrrolo[1,2-a]azocin-6-yl)carbamoyl)benzo[b]thiophen-5-yl)difluoromethyl)phosphonic acid] the same measures were 300 to 3000 nM and less than 100 nM.
Consider `O=C(N[C@H]1C[C@@H]2C[C@@H]2C[C@H]2CC[C@@H](C(=O)N3CC(c4cnccc4F)C3)N2C1=O)c1cc2cc(C(F)(F)P(=O)(O)O)ccc2s1` [Example 303, (difluoro(2-(((3S,6S,7aS,8aR,9aR)-3-(3-(4-fluoropyridin-3-yl)azetidine-1-carbonyl)-5-oxodecahydro-1H-cyclopropa[d]pyrrolo[1,2-a]azocin-6-yl)carbamoyl)benzo[b]thiophen-5-yl)methyl)phosphonic acid], for which the IC50 in test [1] is 300 to 3000 nM; in test [2] it was less than 100 nM.
Regarding `O=C(N[C@H]1C[C@@H]2C[C@@H]2C[C@H]2CC[C@@H](C(=O)N[C@H]3CN(c4cccnc4)C[C@@H]3F)N2C1=O)c1cc2cc(CP(=O)(O)O)ccc2s1` [Example 256, ((2-(((3S,6S,7aS,8aR,9aR)-3-(((3S,4S)-4-fluoro-1-(pyridin-3-yl)pyrrolidin-3-yl)carbamoyl)-5-oxodecahydro-1H-cyclopropa[d]pyrrolo[1,2-a]azocin-6-yl)carbamoyl)benzo[b]thiophen-5-yl)methyl)phosphonic acid], the IC50 was 3000 to 30000 nM in test [1] and 100 to 1000 nM in test [2].
As to `O=C(N[C@H]1C[C@@H]2C[C@@H]2C[C@H]2CC[C@@H](C(=O)N3CC(c4cc[nH]n4)C3)N2C1=O)c1cc2cc(C(F)(F)P(=O)(O)O)ccc2s1` [Compound 111, ((2-(((3S,6S,7aS,8aR,9aR)-3-(3-(1H-pyrazol-3-yl)azetidine-1-carbonyl)-5-oxodecahydro-1H-cyclopropa[d]pyrrolo[1,2-a]azocin-6-yl)carbamoyl)benzo[b]thiophen-5-yl)difluoromethyl)phosphonic acid], the values for the IC50 in test [1] and in test [2] were 300 to 3000 nM and less than 100 nM, respectively.
Take `O=C(N[C@H]1C[C@@H]2C[C@@H]2C[C@H]2CC[C@@H](C(=O)NC3CN(c4ccccn4)C3)N2C1=O)c1cc2cc(C(F)(F)P(=O)(O)O)ccc2s1` [Compound 44, (difluoro(2-(((3S,6S,7aS,8aR,9aR)-5-oxo-3-((1-(pyridin-2-yl)azetidin-3-yl)carbamoyl)decahydro-1H-cyclopropa[d]pyrrolo[1,2-a]azocin-6-yl)carbamoyl)benzo[b]thiophen-5-yl)methyl)phosphonic acid]: the IC50 in test [1] was 300 to 3000 nM; in test [2], less than 100 nM.
For `Cn1cnnc1C1CN(C(=O)[C@@H]2CC[C@@H]3C[C@@H]4C[C@@H]4C[C@H](NC(=O)c4cc5cc(C(F)(F)P(=O)(O)O)ccc5s4)C(=O)N32)C1` [Compound 76, (difluoro(2-(((3S,6S,7aR,8aS,9aR)-3-(3-(4-methyl-4H-1,2,4-triazol-3-yl)azetidine-1-carbonyl)-5-oxodecahydro-1H-cyclopropa[d]pyrrolo[1,2-a]azocin-6-yl)carbamoyl)benzo[b]thiophen-5-yl)methyl)phosphonic acid] the same measures were 3000 to 30000 nM and less than 100 nM.
`O=C(N[C@H]1C[C@@H]2C[C@@H]2C[C@H]2CC[C@@H](C(=O)N3CC(F)(c4ccccc4)C3)N2C1=O)c1cc2cc(C(F)(F)P(=O)(O)O)ccc2s1` [Compound 64, (difluoro(2-(((3S,6S,7aS,8aR,9aR)-3-(3-fluoro-3-phenylazetidine-1-carbonyl)-5-oxodecahydro-1H-cyclopropa[d]pyrrolo[1,2-a]azocin-6-yl)carbamoyl)benzo[b]thiophen-5-yl)methyl)phosphonic acid]: the IC50 in test [1] is 300 to 3000 nM; in test [2], less than 100 nM.
Consider `Cc1ncccc1C1CN(C(=O)[C@@H]2CC[C@@H]3C[C@@H]4C[C@@H]4C[C@H](NC(=O)c4cc5cc(C(F)(F)P(=O)(O)O)ccc5s4)C(=O)N32)C1` [Compound 55, (difluoro(2-(((3S,6S,7aR,8aS,9aR)-3-(3-(2-methylpyridin-3-yl)azetidine-1-carbonyl)-5-oxodecahydro-1H-cyclopropa[d]pyrrolo[1,2-a]azocin-6-yl)carbamoyl)benzo[b]thiophen-5-yl)methyl)phosphonic acid], for which the results for the IC50 in test [1] and in test [2] were 3000 to 30000 nM and less than 100 nM, respectively.
For `CC(C(N)=O)c1cc(-c2ccccc2)ccc1NC(=O)[C@@H]1CC[C@@H]2C[C@H]3C[C@H]3C[C@H](NC(=O)c3cc4cc(C(F)(F)P(=O)(O)O)ccc4s3)C(=O)N21` (stereo partly drawn) [Compound 101] the same measures were 300 to 3000 nM and 100 to 1000 nM.
For `O=C(N[C@H]1C[C@@H]2C[C@@H]2C[C@H]2CC[C@@H](C(=O)N3CC(F)(C(=O)N4CCOCC4)C3)N2C1=O)c1cc2cc(C(F)(F)P(=O)(O)O)ccc2s1` [Compound 95, (difluoro(2-(((3S,6S,7aS,8aR,9aR)-3-(3-fluoro-3-(morpholine-4-carbonyl)azetidine-1-carbonyl)-5-oxodecahydro-1H-cyclopropa[d]pyrrolo[1,2-a]azocin-6-yl)carbamoyl)benzo[b]thiophen-5-yl)methyl)phosphonic acid], the IC50 is 3000 to 30000 nM in test [1] and 100 to 1000 nM in test [2].
`O=C(N[C@H]1C[C@@H]2C[C@@H]2C[C@H]2CC[C@@H](C(=O)N3CC(n4ccnc4)C3)N2C1=O)c1cc2cc(CP(=O)(O)O)ccc2s1` [Compound 24, ((2-(((3S,6S,7aS,8aR,9aR)-3-(3-(1H-imidazol-1-yl)azetidine-1-carbonyl)-5-oxodecahydro-1H-cyclopropa[d]pyrrolo[1,2-a]azocin-6-yl)carbamoyl)benzo[b]thiophen-5-yl)methyl)phosphonic acid]: the IC50 was greater than 30000 nM in test [1] and 100 to 1000 nM in test [2].
On to `COC1CN(C(=O)C2CN(C(=O)[C@@H]3CC[C@@H]4C[C@H]5C[C@H]5C[C@H](NC(=O)c5cc6cc(C(F)(F)P(=O)(O)O)ccc6s5)C(=O)N43)C2)C1` [Compound 102, (difluoro(2-(((3S,6S,7aS,8aR,9aR)-3-(3-(3-methoxyazetidine-1-carbonyl)azetidine-1-carbonyl)-5-oxodecahydro-1H-cyclopropa[d]pyrrolo[1,2-a]azocin-6-yl)carbamoyl)benzo[b]thiophen-5-yl)methyl)phosphonic acid], for which the IC50 in test [1] was 3000 to 30000 nM; in test [2], less than 100 nM.
For `O=C(N[C@H]1C[C@@H]2C[C@@H]2C[C@H]2CC[C@@H](C(=O)N3CCOc4cccnc43)N2C1=O)c1cc2cc(C(F)P(=O)(O)O)ccc2s1` (stereo partly drawn) [Example 385, ((2-(((3S,6S,7aS,8aR,9aR)-3-(3,4-dihydro-2H-pyrido[3,2-b][1,4]oxazine-4-carbonyl)-5-oxodecahydro-1H-cyclopropa[d]pyrrolo[1,2-a]azocin-6-yl)carbamoyl)benzo[b]thiophen-5-yl)fluoromethyl)phosphonic acid] the same measures were 3000 to 30000 nM and 1000 to 10000 nM.
